Source: PMC10403574, “Discovery of a pyrrole-pyridinimidazole derivative as novel SIRT6 inhibitor for sensitizing pancreatic cancer to gemcitabine” (Cell Death & Disease, 2023)

Legend:
[1] = biological target: T1, SIRT6 (Homo sapiens, UniProt Q8N6T7); test: Fluor-De-Lys (FDL) SIRT6 deacetylation assay; type: biochemical; set-up: The human full-length SIRT6 gene was inserted into the prokaryotic expression vector (pET-28a (+)); inferred from the pET-28a(+) vector, Ni-NTA purification and Ni-NTA biosensor loading); made in house; host or cells: Escherichia coli BL21 (DE3); conditions: fixed concentration of 25 μM, RHKK-Ac-AMC, NI = no inhibition; for inhibition at 25 µM: read-out: Inhibition rate (%)
T1 sequence (Q8N6T7 whole entry): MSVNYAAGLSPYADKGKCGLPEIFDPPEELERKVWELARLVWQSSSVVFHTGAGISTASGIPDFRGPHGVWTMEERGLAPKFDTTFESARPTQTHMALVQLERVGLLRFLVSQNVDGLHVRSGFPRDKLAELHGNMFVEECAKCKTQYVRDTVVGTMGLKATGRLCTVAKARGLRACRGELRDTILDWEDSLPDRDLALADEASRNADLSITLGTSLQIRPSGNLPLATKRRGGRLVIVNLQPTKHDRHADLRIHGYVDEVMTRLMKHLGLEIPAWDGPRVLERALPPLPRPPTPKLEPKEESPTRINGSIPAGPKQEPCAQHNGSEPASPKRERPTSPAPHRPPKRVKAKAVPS
Procedure: The human full-length SIRT6 gene was inserted into the prokaryotic expression vector (pET-28a (+)). The verified recombinant plasmid was transformed into Escherichia coli BL21 (DE3) expression strain and cultured overnight at 37 °C on LB plates supplemented with 50 μg/mL kanamycin. Single colonies were inoculated in fluid kanamycin-containing LB mediums. It was shaken at 160 rpm for 16 h at 37 °C and transferred to kanamycin-containing LB medium at a ratio of 1:100. It was shaken at 160 rpm at 37 °C until the OD600 reached 0.6. The Isopropyl-β-d-thiogalactopyranoside was added to make the final concentration of solution 0.5 mmol/L, cultured for 15 °C and 160 rpm for 24 h.
Bacterial liquid was harvested at 12,000 rpm at 4 °C for 20 min, and then re-suspended in Lysis buffer (20 mmol/L Hepes pH 7.5, 20 mmol/L imidazole, 5% Glycerol, 500 mmol/L NaCl). Cell pellets were disrupted by high-pressure crusher (JNBIO, Guangzhou China) and centrifuged (4 °C, 12000 rpm, for 20 min). Supernatant was collected and purified by FPLC with a 1 mL Ni–NTA Sepharose column (GE Healthcare, Stamford, USA). The SIRT6 protein was eluted at containing 50 mM, 100 mM, 150 mM, 200 mM, and 500 mM imidazole in elution buffer. The purified SIRT6 protein was dialyzed in dialysis buffer (50 mM Tris-HCl, 137 mM NaCl, 2.7 mM KCl, 1 mM MgCl2). The purified SIRT6 protein was analyzed by SDS-PAGE.
Fluor-De-Lys (FDL) assays were used for the examination of the deacetylation activities of sirtuins as described previously. For the detection of SIRT6 activity, the 50-μL reaction mixture contained 5 μM SIRT6, 2.5 mM NAD^+ (β-Nicotinamide adenine dinucleotide hydrate, Sigma, N1636), 75 μM RHKK-Ac-AMC (GL Biochem, Shanghai), compounds/DMSO, and assay buffer. The reactions were incubated at 37 °C for 2 h, added 50 μL stop solution (40 mM nicotinamide, 6 mg/mL trypsin) at 25 °C for 30 min. Fluorescence intensity was measured at an excitation wavelength of 360 nm and an emission wavelength of 460 nm. IC50 values were calculated in GraphPad Prism version 8.00.

[2] = biological target: T1, SIRT6; set-up: endogenous in cells; host or cells: HeLa; conditions: cited from earlier work
[3] = tested on: BXPC-3 cells; test: γ-H2AX DNA damage (immunofluorescence, western blot); type: cell-based; conditions: BXPC-3, 10 nM gemcitabine, 6.25 μM 8a or combination, 24 h
Procedure: Cells were harvested and lysed in a lysis buffer (solarbio, R0010) supplementing 1 mM PMSF and protease inhibitor (TargetMol, USA). […] Then, the membranes were detected by Tanon 5200 (Tanon, Beijing, China). […]

[4] = tested on: BXPC-3 xenografts; test: BXPC-3 tumor xenograft in nude mice; type: in vivo, BALB/c nude mice; conditions: gemcitabine 10 mg/kg i.p. once every 2 days for 4 weeks
Procedure: Female BALB/c nude mice (14 ± 2 g, 4 weeks old) were purchase. About 2 × 10^6 of BXPC-3 cells were inoculated into nude mouse flanks. When the tumor volume reached approximately 100 mm^3, mice were randomly divided into four groups with six mice per group before treatment and then treated with vehicle, 8a (20 mg/kg), gemcitabine (10 mg/kg) and their combination every 2 days. Tumor volumes and body weight were measured every 3 days, and use the formula to calculate the tumor volume: V = (L × W × W)/2 (V, tumor volume; L, length; and W, width). Mice were sacrificed and tumor tissues were removed. Tumor tissues were fixed with paraformaldehyde (4%) and embedded with paraffin.
To further confirm whether 8a can enhance the antitumor effects of gemcitabine in vivo, the BXPC-3 PDAC xenografts were used. The mice with tumors received intraperitoneal injection of compound 8a (20 mg/kg), gemcitabine (10 mg/kg), or their combination once every 2 days for 4 weeks. Tumor volumes and body weight of mice were monitored every 3 days.

SMILES | Inhibition rate (%) [1] [%] | also measured
Cn1c(-c2nccc3[nH]cnc23)cc(Br)c1Br [Compound 1c] |  | inhibition at 25 µM [1]: 3.7%
Brc1cc(-c2nccc3[nH]cnc23)[nH]c1Br.O=C(O)C(F)(F)F [Compound 2a] | 4.1 | 
BrCCCCCCn1cnc2c(-c3cc(Br)c(Br)[nH]3)nccc21.O=C(O)C(F)(F)F [Compound 4a] | 5.3 | 
O=C(O)C(F)(F)F.O=C1c2ccccc2C(=O)N1CCCCCCn1cnc2c(-c3cc(Br)c(Br)[nH]3)nccc21 [Compound 10c] | 6.4 | 
BrCCCCCCn1c(-c2nccc3c2ncn3CCCCCCBr)cc(Br)c1Br [Compound 11a] |  | inhibition at 25 µM [1]: < 0%
O=C(Nc1ccc(O)c(C(=O)O)c1)c1cccc(NC(=O)c2ccco2)c1 [OSS_128167] |  | IC50 [2]: 89 µM
Nc1ccn([C@@H]2O[C@H](CO)[C@@H](O)C2(F)F)c(=O)n1 [gemcitabine] |  | γ-H2AX foci [3]: can cause γ-H2AX foci; tumor mass inhibition [4]: 30.1%

Second part, led by results:

Inhibition rate (%) [1] [%] | SMILES | also measured
16.7 | Brc1cc(-c2nccc3c2ncn3CCCCCCN2CCCCC2)[nH]c1Br.O=C(O)C(F)(F)F [Compound 10d] | 
23.8 | Brc1cc(-c2nccc3c2ncn3CCCCCCN2CCOCC2)n(CCCCCCN2CCOCC2)c1Br [Compound 11b] | 
